Results reported in patent US20100267638A1, “EXOSITE-DIRECTED THROMBIN INHIBITORS” (CLEVELAND STATE UNIVERSITY, priority 2003, published 2010).
No end group written: not given here.

Molecular target: thrombin (Homo sapiens, UniProt P00734)
Experiment: Activation of plasma factor V by thrombin preincubated with peptide (SDS-PAGE, immunoblotting)
Format: biochemical
Set-up: Factor Xa cleaves prothrombin to form thrombin; purchased Haematologic Technologies Inc. (Essex Junction, Vt.)
Conditions: thrombin 1 nM preincubated with 100 μM peptide, factor V 250 nM
Method: Gel Electrophoresis and western blotting. Sodium dodecyl sulfate polyacrylamide gel electrophoresis (SDS-PAGE) analyses were performed using 4-12% gradient gels according to the method of Laemmli. In several experiments, proteins were transferred to polyvinylidene difluoride (PVDF) membranes according to the method described by Towbin et al. After transfer to nitrocellulose, factor V heavy and light chain(s) were detected using the appropriate monoclonal and polyclonal antibodies. Immunoreactive fragments were visualized with chemiluminescence.
Factor V (250 nM) was incubated with thrombin (1 nM). And FIG. 4B illustrates thrombin (1 nM) was preincubated with 100 μM peptide DYDYQ and the mixture was added to factor V (250 nM). […] Fragments were identified following staining with monoclonal antibody αHFV#17 that recognizes an epitope between amino acid residues 307-506 of factor V and chemiluminescence as described. Lane 1 in both panels depicts aliquots of the mixture withdrawn from the reaction before the addition of thrombin or thrombin/peptide mixture while lanes 2-7 show aliquots of the reaction mixture withdrawn at 30 sec, 1 min, 3 min, 5 min, 10 min, 15 min following the addition of thrombin alone or of thrombin/peptide mixture. The time of incubation is shown at the bottom of the figure. Position of the molecular weight markers is indicated at left.

DYDYQ [DYDYQ, Asp-Tyr-Asp-Tyr-Gln]
inhibition of activation of factor V by thrombin (cleavage at Arg709): inhibited
inhibition of activation of factor V by thrombin (cleavage at Arg709) (listed as pentapeptide): potent inhibitor
